Reference: patent US10800754B2, “Heterocyclic amide compound” (TAKEDA PHARMACEUTICAL COMPANY LIMITED, priority 2016, dated 2020)

Biological target: T1, human PRS protein (Homo sapiens, UniProt P07814)
T1 construct: to construct His-Avi-hEPRS (998-1512) expression plasmid; His tag (N); Avi tag (N); TEV cleavage site (ENLYFQ/GS, encoded by forward primer hEPRS-TEV-NheF) (N); made in house; host or cells: E. coli BL21(DE3)
T1 sequence (P07814 998-1512): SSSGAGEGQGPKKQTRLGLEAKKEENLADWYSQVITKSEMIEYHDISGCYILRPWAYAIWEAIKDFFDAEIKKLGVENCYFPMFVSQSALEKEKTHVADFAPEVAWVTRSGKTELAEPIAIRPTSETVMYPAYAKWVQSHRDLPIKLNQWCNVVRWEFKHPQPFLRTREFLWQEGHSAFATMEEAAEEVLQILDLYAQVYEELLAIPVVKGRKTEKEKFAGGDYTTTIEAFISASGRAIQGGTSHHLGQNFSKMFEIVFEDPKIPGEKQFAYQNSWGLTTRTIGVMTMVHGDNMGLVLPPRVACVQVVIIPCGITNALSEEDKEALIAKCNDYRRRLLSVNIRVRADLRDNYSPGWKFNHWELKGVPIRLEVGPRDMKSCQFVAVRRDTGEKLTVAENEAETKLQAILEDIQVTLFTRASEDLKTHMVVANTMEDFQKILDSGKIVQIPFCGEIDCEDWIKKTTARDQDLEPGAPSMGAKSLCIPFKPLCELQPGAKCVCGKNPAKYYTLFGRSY
Assay: PRS inhibitory activity (ATP/[32P]pyrophosphate exchange enzyme reaction)
Assay type: biochemical
Details: 300 nM test compound; recombinant human PRS (EPRS 998-1512); read-out: inhibitory rate (%) of PRS
Protocol: The PRS inhibitory activity of the compounds of the present invention was evaluated by the following method.
An expression plasmid of Catalytic Domain of human EPRS was obtained by PCR using human skeletal muscle cDNA Library (Takara Bio Inc.) as a template and 2 kinds of Primers 5′-[…]-3′ (hEPRS-TEV-NheF) (SEQ ID NO: 1) and 5′-[…]-3′ (hEPRS-St-Not-R) (SEQ ID NO: 2). PCR was performed using PrimeStar GXL DNA Polymerase (Takara Bio Inc.) and included (1) 98° C., 1 min, (2) cycles of 98° C., 10 sec, 65° C., 10 sec, 72° C., 1 min, and (3) reaction at 72° C., 1 min. This was cleaved with Nhe I and Not I (Takara Bio Inc.) and inserted using Ligation High (TOYOBO CO., LTD.) into the Nhe I/Not I site of pET21a (Novagen) with His-Avitag inserted thereinto. This was introduced into ECOS JM109 (NIPPON GENE CO., LTD.) to construct His-Avi-hEPRS (998-1512) expression plasmid.
Recombinant human PRS protein was prepared by transforming the His-Avi-hEPRS (998-1512) expression plasmid prepared above into ECOS Competent E. coli BL21(DE3) (NIPPON GENE CO., LTD.). Escherichia coli obtained by transformation was inoculated into 300 mL of LB medium (1% peptone, 0.5% yeast extract, 0.5% sodium chloride, 0.01% ampicillin) and cultured at 30° C. for 16 hr. The obtained culture medium was transferred into a jar culture tank charged with 6 L of the main fermentation medium (0.3% potassium dihydrogen phosphate, 0.6% disodium hydrogen phosphate, 0.1% ammonium chloride, 0.05% sodium chloride, 0.024% magnesium sulfate, 0.02% NEWPOL LB-625, 1.5% sorbitol, 1.5% casamino acid, 0.5% yeast extract, 0.01% ampicillin) and culturing was started at 37° C., quantity of airflow 5 L/min, stirring rotating speed 400 rpm. At the time point when the turbidity of the culture medium reached about 550 Klett units, the culture temperature was lowered to 16° C., isopropyl-β-D-thiogalactopyranoside (IPTG) was added to the final concentration 0.1 mM, and culturing was performed for another 16 hr to induce expression of human PRS. After completion of culturing, the culture medium was centrifuged at 5,000 rpm for 10 min. The obtained human PRS expressing Escherichia coli was suspended in a buffer containing 50 mM Tris-HCl (pH 8.0), 150 mM NaCl, 1 mM DTT, 5 U/ml Benzonase, 20 mM Imidazole and sonicated using Sonifier (BRANSON). The homogenate was centrifuged (33,000×G, 60 min, Beckman Coulter), the obtained supernatant was subjected to adsorption by passage through Ni-NTA Superflow (QIAGEN) column equilibrated in advance with 50 mM Tris-HCl (pH 8.0), 300 mM NaCl, 1 mM DTT, and elution was performed with a buffer containing 50 mM Tris-HCl (pH 8.0), 300 mM NaCl, 1 mM DTT, 250 mM Imidazole. Furthermore, gel filtration was performed using […] equilibrated in advance with a buffer containing 50 mM Tris-HCl (pH 8.0), 150 mM NaCl, 1 mM DTT, 10% glycerol to give purified human PRS protein. The protein concentration was measured using BCA Protein Assay Kit (PIERCE) and BSA as the standard.
A test compound was dissolved in 5 μL of an assay buffer (50 mM Tris-HCl (pH 7.5), 20 mM KCl, 1 mM DTT, 0.01% Tween 20) and incubated for 60 min with 5 μL of 40 nM human PRS protein dissolved in the assay buffer containing 40 mM MgCl2. An enzyme reaction of the human PRS protein was started by adding 10 μL of a substrate solution containing 300 μM ATP, 160 μM L-Proline, 400 μM pyrophosphate, [^32P]pyrophosphate (PerkinElmer, Waltham, Mass.) prepared to 1 MBq/mL. After incubation at room temperature for 30 min, the reaction was discontinued by adding 50 μL of discontinuation/washing solution (1M HCl, 200 mM sodium pyrophosphate) to the reaction mixture. The reaction solution was transferred to a filter plate (Merck Millipore, Billerica, Mass.) previously added with 200 μL of charcoal solution (0.5% HCl solution containing 10% charcoal (w/v)). […]

| inhibition at 0.3 µM | SMILES |
| --- | --- |
| 77% | Cc1cc(N2CC(C)C(C#N)(C3CC3)C2=O)cc(NC(=O)Cc2ccccc2)n1 (centres unmarked) [Example 54, N-(4-(3-cyano-3-cyclopropyl-4-methyl-2-oxopyrrolidin-1-yl)-6-methylpyridin-2-yl)-2-phenylacetamide] |
| 84% | Cn1cc(-c2cccc(CC(=O)Nc3cc(N4CC[C@@](C#N)(C5CC5)C4=O)cc(C(F)(F)F)n3)c2)cn1 [Example 61, N-(4-((3S)-3-cyano-3-cyclopropyl-2-oxopyrrolidin-1-yl)-6-(trifluoromethyl)-pyridin-2-yl)-2-(3-(1-methyl-1H-pyrazol-4-yl)phenyl)acetamide] |
| 92% | COc1cc(N2CC[C@@](C#N)(C3CC3)C2=O)cc(NC(=O)Cc2cccc(-c3cnn(C)c3)c2)n1 [Example 62, N-(4-((3S)-3-cyano-3-cyclopropyl-2-oxopyrrolidin-1-yl)-6-methoxypyridin-2-yl)-2-(3-(1-methyl-1H-pyrazol-4-yl)phenyl)acetamide] |
| 99% | N#C[C@@]1(C2CC2)CCN(c2ccnc(NC(=O)Cc3cccc(-c4cnn(CC(N)=O)c4)c3)c2)C1=O [Example 69, 2-(3-(1-(2-amino-2-oxoethyl)-1H-pyrazol-4-yl)phenyl)-N-(4-((3S)-3-cyano-3-cyclopropyl-2-oxopyrrolidin-1-yl)pyridin-2-yl)acetamide] |
| 99% | COC(=O)Cn1cc(-c2cccc(CC(=O)Nc3cc(N4CC[C@@](C#N)(C5CC5)C4=O)ccn3)c2)cn1 [Example 73, methyl (4-(3-(2-((4-((3S)-3-cyano-3-cyclopropyl-2-oxopyrrolidin-1-yl)pyridin-2-yl)amino)-2-oxoethyl)phenyl)-1H-pyrazol-1-yl)acetate] |
| 97% | N#C[C@@]1(C2CC2)CCN(c2ccnc(NC(=O)Cc3cccc(-c4cnn(CC5CCCC5)c4)c3)c2)C1=O [Example 75, N-(4-((3S)-3-cyano-3-cyclopropyl-2-oxopyrrolidin-1-yl)pyridin-2-yl)-2-(3-(1-(cyclopentylmethyl)-1H-pyrazol-4-yl)phenyl)acetamide] |
| 98% | N#C[C@@]1(C2CC2)CCN(c2ccnc(NC(=O)Cc3cccc(-c4cnn(CC5CCCO5)c4)c3)c2)C1=O (stereo partly drawn) [Example 76, N-(4-((3S)-3-cyano-3-cyclopropyl-2-oxopyrrolidin-1-yl)pyridin-2-yl)-2-(3-(1-(tetrahydrofuran-2-ylmethyl)-1H-pyrazol-4-yl)phenyl)acetamide] |
| 98% | N#C[C@@]1(C2CC2)CCN(c2ccnc(NC(=O)Cc3cccc(-c4cnn(CCn5cccn5)c4)c3)c2)C1=O [Example 80, N-(4-((3S)-3-cyano-3-cyclopropyl-2-oxopyrrolidin-1-yl)pyridin-2-yl)-2-(3-(1-(2-(1H-pyrazol-1-yl)ethyl)-1H-pyrazol-4-yl)phenyl)acetamide] |
| 97% | N#C[C@@]1(C2CC2)CCN(c2ccnc(NC(=O)Cc3cccc(-c4cnn(CCn5ccnc5)c4)c3)c2)C1=O [Example 81, N-(4-((3S)-3-cyano-3-cyclopropyl-2-oxopyrrolidin-1-yl)pyridin-2-yl)-2-(3-(1-(2-(1H-imidazol-1-yl)ethyl)-1H-pyrazol-4-yl)phenyl)acetamide] |
| 92% | N#C[C@@]1(C2CC2)CCN(c2ccnc(NC(=O)Cc3cccc(-c4cnn(CC5CCCCC5)c4)c3)c2)C1=O [Example 82, N-(4-((3S)-3-cyano-3-cyclopropyl-2-oxopyrrolidin-1-yl)pyridin-2-yl)-2-(3-(1-(cyclohexylmethyl)-1H-pyrazol-4-yl)phenyl)acetamide] |
| 96% | COCCOCCn1cc(-c2cccc(CC(=O)Nc3cc(N4CC[C@@](C#N)(C5CC5)C4=O)ccn3)c2)cn1 [Example 86, N-(4-((3S)-3-cyano-3-cyclopropyl-2-oxopyrrolidin-1-yl)pyridin-2-yl)-2-(3-(1-(2-(2-methoxyethoxy)ethyl)-1H-pyrazol-4-yl)phenyl)acetamide] |
